Experiments:
MCII cells = experiment: MCII Mast Cell Toxicity Assay (XTT); type: cell-based, mouse; details: sensitized MCII cells, 4-12 hours, 37° C., read-out: MCII Mast Cell Toxicity IC50
Excerpt: MCII Mast Cell Toxicity Assay
This toxicity assay is run in parallel with the MCII mast cell LTC4 assay and serves as an indicator of compound effects on the viability and metabolic activity of the MCII cells. This "toxicity" assay is based on the ability of dehydrogenase enzymes present in viable metabolically active cells to bioreduce the tetrazolium sale XTT yielding a colored, water soluble formazan product. (see, Roehm et al.) "An improved colorimetric assay for cell proliferation and viability utilizing the tetrazolium salt XTT. J. Immunol. Methods 142:257-65 (1991).
A duplicate polystyrene 96-well tissue culture plate (Costar) is set up with sensitized MCII cells, EM95 ascites, media and dilutions of the test compound as described above. The complete media is supplemented with concanavalin A induced culture supernatants from the mouse helper T cell clone D10.G4, as a source of mast cell growth factors.
Wells of the toxicity assay plate are pulsed with 25 μl XTT (Sigma) plus phenazine methosulfate (Aldrich) giving a final concentration of 0.2 mg/ml XTT and 25 μM phenazine methosulfate. The plates are incubated at 37° C. in 10% CO2 for 4-12 hours and then production of the XTT formazan product determined by measuring the optical density of the wells at a wavelength of 450 nm. The positive control on each plate is stimulated MCII cells with dimethyl sulfoxide vehicle alone and the negative control is the same reaction mixture without cells. The background negative control value is subtracted from experimental and positive control values and the data are reported as percent of positive control.

[1] = test system: TxB2 production in plasma-depleted blood; experiment: Inhibition of Eicosanoid Production by Plasma-Depleted Blood: TxB2; type: cell-based; details: Homo sapiens, read-out: Plasma DPLTD Blood TxB2 IC50
Description: Inhibition of Eicosanoid Production by Plasma-Depleted Blood
Compounds are evaluated for their ability to inhibit production of leukotriene B4 (LTB4) and thromboxane B2 (TxB2) upon stimulation of human plasma-depleted blood with formyl-methionyl-leucyl-phenylalanine (FMLP) and thrombin. LTB4 is produced by neutrophils and TxB2 by platelets stimulated at their respective receptors with FMLP and thrombin. The assay is carried out in 1 ml deep well polypropylene 96-well plates (Beckman). For the test, ten ml of blood is collected in EDTA at a final concentration of 1.5 mg/ml. Then, 40 ml glucose phosphate buffer containing 0.1% gelatin is added and the suspension centrifuged at 900 g for 10 minutes at room temperature. The supernatant is discarded and the cells washed once with 50 ml buffer before resuspending them in 50 ml Krebs-Ringers-Henseleit Buffer containing 0.1% gelatin, 1 mM CaCl2, 1.1 mM MgCl2 (KRH buffer). Working solutions of test compounds are made by dissolving the material in DMSO at 10 mM and diluting with appropriate amounts of KRH buffer. An agonist solution is made containing 1 μM FMLP (sigma) and 10 units/ml of thrombin in KRH buffer (Enzyme Research Labs). […] The amount of LTB4 and TxB2 produced is determined by the use of a competitive enzyme immunoassay using commercial reagents from Cayman Chemical.

Compound	CC50 (MCII cells) [µM]	IC50 [1] [µM]
O=C(c1cccc2ccccc12)c1c(-c2ccc(O)cc2)sc2cc(O)ccc12 [Example 2, 6-hydroxyphenyl-2-(p-hydroxyphenyl)-(benzo(B)thien-3-yl) (α-napthyl)methanone]	> 10	
Oc1ccc(-c2cc3ccc(O)cc3s2)cc1 [Compound B]	< 10	
O=C(c1ccc(O)cc1)c1c(-c2ccc(O)cc2)sc2cc(O)ccc12 [Compound D]		> 9.8
O=C(c1ccc2ccccc2c1)c1c(-c2ccc(O)cc2)sc2cc(O)ccc12 [Example 3, 6-hydroxyphenyl-2-(p-hydroxyphenyl)-(benzo(B)thien-3-yl)(β-napthyl)methanone]	> 10	
O=C(c1ccc(-c2ccccc2)cc1)c1c(-c2ccc(O)cc2)sc2cc(O)ccc12 [Example 1, 6-hydroxyphenyl-2-(p-hydroxyphenyl)-(benzo(B)thien-3-yl)(p-phenyl)phenyl methanone]	> 10	

From patent US5514703A, “Benzothiophene compounds useful for inhibiting lipoxygenase” (Eli Lilly and Company, priority 1995, dated 1996)
